Legend:
S. Aureus = target: T1, S. Aureus (Staphylococcus aureus, UniProt P00807); test: Antibiotic susceptibility testing by β-LEAF fluorescence in microfluidic device with portable fluorimeter; type: cell-based
T1 construct: endogenous in cells
Method: In another experiment, fluorometric assay techniques were examined using a microfluidic device (e.g., the microfluidic device 102) and fluorescence images were collected using a portable wide field fluorimeter similar to the system 700 depicted in FIGS. 7A-D. In this experiment, the detection reagent was a 20 μM β-LEAF Bodipy-FL probe solution (2×stock) that was prepared in 40% DMSO in PBS, and an antibiotic solution was a […] penicillin G solution (4×stock) that was prepared by dissolving the antibiotic powder in PBS. Two different types of liquid samples were prepared. A first liquid sample (which included the antibiotic solution) was prepared by combining the 25 μl bacterial suspension, 50 μl of probe 2×stock solution, and 25 μl antibiotic 4×stock solution. […]
Data acquisition involved collecting a fluorescent reading by the camera every 3 seconds. […] Fluorescence was measured in a machine specific standard unit. […]
To analyze image data, a region of interest was selected over an area of bacteria capture corresponding to a chamber of the microfluidic device was the liquid samples were collected. Fluorescence data was extracted in a green channel. […]
The experiment was performed using two liquid samples that were introduced into a microfluidic device and monitored for fluorescence over a 10-minute time period. […]

[1] = target: T2, β-lactamase producing strain (B-lac(+)) (Staphylococcus aureus, UniProt P00807); type: cell-based; conditions: B-lac(+) S. aureus, β-LEAF with vs without cefazolin, 60-minute time course, 37° C.
T2 construct: a known β-lactamase producing strain (B-lac(+)); host or cells: S. aureus ATCC control strain, β-lactamase producing (B-lac(+))
T2 sequence (P00807 25-281): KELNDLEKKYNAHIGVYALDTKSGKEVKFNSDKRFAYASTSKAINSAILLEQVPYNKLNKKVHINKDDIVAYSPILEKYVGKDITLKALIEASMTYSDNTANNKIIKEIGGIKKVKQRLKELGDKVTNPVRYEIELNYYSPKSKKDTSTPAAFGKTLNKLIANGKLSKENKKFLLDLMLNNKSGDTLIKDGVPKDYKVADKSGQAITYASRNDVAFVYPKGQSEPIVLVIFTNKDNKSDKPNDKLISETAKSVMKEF
Description: Consequently, the fluorophores are unable to emit fluorescence due to ground state interactions between each other. However, after probe cleavage by β-lactamase, the fluorophores diffuse away from each other, are no longer quenched, and thus regain their fluorescent properties. […] If the assay is repeated in the presence of a cleavable antibiotic that competes with the β-LEAF for β-lactamase cleavage, the rate of β-LEAF cleavage will decrease, resulting in no fluorescence increase.
To encapsulate the data, the suppression of fluorescence change (ΔFs) is defined as (ΔFBL−ΔFBL+antibiotic)/ΔFBL, where ΔFBL and ΔFBL+antibiotic is the fluorescence rate of change of the β-lactamase only and β-lactamase and antibiotic conditions, respectively. […]
Time course assays were carried out with each of the two liquid samples by monitoring β-LEAF cleavage by measuring fluorescence for 60 minutes, at 1 minute intervals using a Spectramax® M5 Plate Reader (Molecular Devices). […] Fluorescence was measured in a machine specific standard unit.
In this example, β-LEAF assays were performed with the two ATCC S. aureus control bacterial strains, a known β-lactamase producing strain (B-lac(+)) and a known β-lactamase non-producing strain (B-lac(−)). […] Four test solutions were prepared and examined for time-course fluorescence intensity changes: […]

T1 sequence (P00807 25-281): as above

Compound: CC1(C)S[C@@H]2[C@H](NC(=O)Cc3ccccc3)C(=O)N2[C@H]1C(=O)O [Penicillin G]
- change of fluorescence intensity over the ten-minute time period (S. Aureus; 50 μl sample, 2.5e6 CFU/ml S. Aureus, fluorescent probe plus Penicillin G): did not change significantly
- susceptibility of the antibiotic to cleavage by the bacteria (S. Aureus; S. Aureus, competition with fluorescent probe): vulnerable to cleaving

Compound: Cc1nnc(SCC2=C(C(=O)O)N3C(=O)[C@@H](NC(=O)Cn4cnnn4)[C@H]3SC2)s1 [cefazolin]
- suppression of fluorescence change (ΔFs) [1]: ~1

From US11635379B2, “Portable wide field fluorimeter systems” (priority 2017, dated 2023)
